Experimental data reported in patent US10881668B2, “Acetamide thienotriazolodiazepines and uses thereof” (Dana-Farber Cancer Institute, Inc., priority 2015, dated 2021).
Like-named read-outs stand apart in the source and are kept apart here.

What was measured:
BRDT(1) = BRDT(1) (Homo sapiens (Human), UniProt Q58F21); experiment: AlphaScreen acetyl-histone binding assay, BRDT(1); conditions: H4K5acK8acK12acK16ac peptide
Experimental: (§1) The IC50 values of the compounds were determined by ALPHASCREENING assays for BRD4 and BRDT protein. NMC797 cell line is a BRD4 dependant NUT midline carcinoma line.
(§2) Acetyl-Histone Binding Assay.
(§3) Assays were performed as described previously with minor modifications from the manufacturer's protocol (PerkinElmer, USA). All reagents were diluted in 50 mM HEPES, 100 mM NaCl, 0.1% BSA, pH 7.4 supplemented with 0.05% CHAPS and allowed to equilibrate to room temperature prior to addition to plates. A 24-point 1:2 serial dilution of the ligands was prepared over the range of 150-0 μM and 4 μl transferred to low-volume 384-well plates (PROXIPLATE™-384 Plus, PerkinElmer, USA), followed by 4 μl of HIS-tagged protein (BRD4/1, 250 nM, BRD4/2 and CREBBP, 2000 nM). […] Plates were sealed and incubated for a further 30 minutes, before the addition of 4 μl of streptavidin-coated donor beads (25 μg/ml) and 4 μl nickel chelate acceptor beads (25 μg/ml) under low light conditions. Plates were foil-sealed to protect from light, incubated at room temperature for 60 minutes and read on a PHERASTAR FS plate reader (BMG Labtech, Germany) using an ALPHASCREEN 680 excitation/570 emission filter set. IC50 values were calculated in Prism 5 ([…] Software, USA) after normalization against corresponding DMSO controls and are given as the final concentration of compound in the 20 μl reaction volume.

[1] = test system: NMC797 cell line (BRD4 dependant NUT midline carcinoma line); experiment: Cell proliferation assay (ATP content), NMC797; type: cell-based; conditions: 48-hour incubation
Experimental: as §1
Cell Proliferation Assay.
Cells were seeded into white, 384-well microtiter plates (Nunc) at 500 cells per well in a total volume of 50 μL media. The 797, TT, and TE10 cells were grown in DMEM containing 1% penicillin/streptomycin and 10% FBS. The Per403 cells were grown in DMEM containing 1% penicillin/streptomycin and 20% FBS. Compounds were delivered to microtiter assay plates by robotic pin transfer (PerkinElmer JANUS equipped with a V&P Scientific 100 nL pin tool). Following a 48-hour incubation at 37° C., cells were lysed and wells were assessed for total ATP content using a commercial proliferation assay (Cell TITERGLO; Promega). Replicate measurements were analyzed with respect to dose and estimates of IC50 were calculated by logistic regression ([…] PRISM).

[2] = Pharmacokinetics in male CD1 mice, IV administration; conditions: whole blood; for AUC(0-inf) / AUC(0-t) / MRT inf / Vd / clearance / half-life: male, CD1, mouse, iv, 5 mg/kg
Experimental: (§4) Pharmacokinetic parameters were determined by administration of a candidate bromodomain inhibitor to male CD1 mice. Intravenous doses were delivered at 5 mg/kg, and oral doses at 10 mg/kg (N=3). […] The compound concentration in mouse blood was monitored over 24-hour time period to check the compound concentration in blood at 5 min, 30 min, 1 hour, 2 hours, 6 hours, 12 hours, and 24 hour via a series bleeding.

[3] = Pharmacokinetics in male CD1 mice, oral administration; conditions: for F: oral 10 mg/kg (IV 5 mg/kg)
Experimental: as §4

BRD4(1) = BRD4(1) (Homo sapiens (Human), UniProt O60885); experiment: AlphaScreen acetyl-histone binding assay, BRD4(1); conditions: H4K5acK8acK12acK16ac peptide
Experimental: as §1, §2, §3

[4] = male, CD1, mouse, in vivo
Experimental: as §4

in vivo = conditions: male, CD1, mouse, iv, 1 mg/kg
Experimental: as §4

[5] = male, CD1, mouse, whole blood, po, 10 mg/kg
[6] = male CD1 mice, oral 10 mg/kg, whole blood, N=3

Structure (SMILES): Cc1sc2c(c1C)C(c1ccc(Cl)cc1)=N[C@@H](CC(=O)NC[C@H](C)O)c1nnc(C)n1-2 [Compound 501]
- IC50 (BRDT(1)): 82 nM
- IC50 ([1]; NMC-797, NMC797 cells): 30 nM
- AUC(0-inf) [2]: 2390 ng·h/mL
- AUC(0-t) [2]: 2380 ng·h/mL
- MRT inf [2]: 0.718 h
- Vd [2]: 1.54 L/kg
- clearance [2]: 36.7 mL/min/kg
- half-life [2]: 1.51 h
- F ([3]; male CD1 mice, N=3): 53.7%
- AUC(0-inf) [3, 5]: 2570 ng·h/mL
- AUC(0-t) [3, 5]: 2520 ng·h/mL
- Cmax [3, 5]: 1260 ng/mL
- Tmax [3, 5]: 0.417 h
- half-life [3, 5]: 1.54 h

Structure (SMILES): Cc1sc2c(c1C)C(c1ccc(Cl)cc1)=N[C@@H](CC(=O)NC[C@@H](C)O)c1nnc(C)n1-2 [Compound 502]
- IC50 (BRDT(1)): 61 nM
- IC50 ([1]; NMC-797, NMC797 cells): 29 nM
- AUC(0-inf) [2]: 2960 ng·h/mL
- AUC(0-t) [2]: 2940 ng·h/mL
- MRT inf [2]: 0.882 h
- Vd [2]: 1.48 L/kg
- clearance [2]: 29.5 mL/min/kg
- half-life [2]: 1.06 h
- F ([3]; male CD1 mice, N=3): 53.4%
- AUC(0-inf) [3, 5]: 3160 ng·h/mL
- AUC(0-t) [3, 5]: 3100 ng·h/mL
- Cmax [3, 5]: 1430 ng/mL
- Tmax [3, 5]: 0.5 h
- half-life [3, 5]: 1.37 h

Structure (SMILES): Cc1sc2c(c1C)C(c1ccc(Cl)cc1)=N[C@@H](CC(=O)NCC(C)(C)O)c1nnc(C)n1-2 [Compound 503]
- IC50 (BRDT(1)): 89 nM
- IC50 (BRD4(1)): 44 nM
- IC50 ([1]; NMC-797, NMC797 cells): 42 nM

Structure (SMILES): Cc1sc2c(c1C)C(c1ccc(Cl)cc1)=N[C@@H](CC(=O)NCC(F)F)c1nnc(C)n1-2 [Compound 504]
- IC50 (BRDT(1)): 69 nM
- IC50 ([1]; NMC-797, NMC797 cells): 54 nM

Structure (SMILES): Cc1sc2c(c1C)C(c1ccc(Cl)cc1)=N[C@@H](CC(=O)NCCC(F)F)c1nnc(C)n1-2 [Compound 505]
- IC50 (BRDT(1)): 75 nM
- IC50 ([1]; NMC-797, NMC797 cells): 93 nM

Structure (SMILES): Cc1sc2c(c1C)C(c1ccc(Cl)cc1)=N[C@@H](CC(=O)NCC1CCN(CCN(C)C)CC1)c1nnc(C)n1-2 [Compound 601]
- F [4]: 4%
- half-life (in vivo): 11.7 h

Structure (SMILES): Cc1sc2c(c1C)C(c1ccc(Cl)cc1)=N[C@@H](CC(=O)NCCCN1CCC(N3CCCCC3)CC1)c1nnc(C)n1-2 [Compound 602]
- F [4]: 2%
- half-life (in vivo): 21 h

Structure (SMILES): Cc1sc2c(c1C)C(c1ccc(Cl)cc1)=N[C@@H](CC(=O)N1CCC(N3CCCCC3)CC1)c1nnc(C)n1-2 [Compound 603]
- F [4]: 20%
- half-life (in vivo): 1 h

Structure (SMILES): Cc1sc2c(c1C)C(c1ccc(Cl)cc1)=N[C@@H](CC(=O)NCCCN1CCCC1)c1nnc(C)n1-2 [Compound 604]
- F [4]: 7%
- half-life (in vivo): 2 h

Structure (SMILES): Cc1sc2c(c1C)C(c1ccc(Cl)cc1)=N[C@@H](CC(=O)N1CCn3c(nnc3C(F)(F)F)C1)c1nnc(C)n1-2 [Compound 605]
- F [4]: 6%
- half-life (in vivo): 0.5 h

Structure (SMILES): Cc1sc2c(c1C)C(c1ccc(Cl)cc1)=N[C@@H](CC(=O)OC(C)(C)C)c1nnc(C)n1-2 [JQ1, reference compound]
- IC50 ([1]; NMC797 cells): 21 nM
- AUCINF ([2]; male CD1 mice, IV 5 mg/kg, N=3): 2130 ng·h/mL
- AUClast ([2]; male CD1 mice, IV 5 mg/kg, N=3): 2130 ng·h/mL
- CL ([2]; male CD1 mice, IV 5 mg/kg, N=3): 39.2 mL/min/kg
- MRTINF ([2]; male CD1 mice, IV 5 mg/kg, N=3): 0.861 h
- AUCINF [3, 6]: 2090 ng·h/mL
- AUClast [3, 6]: 2040 ng·h/mL
- Cmax [3, 6]: 1180 ng/mL
- Tmax [3, 6]: 0.250 h
